Results on 15 molecules are retold here after US8008311B2, “Methods and compostions utilizing quinazolinones” (Cytokinetics, Inc., priority 2003, dated 2011).

Several values for one entry are separate records, joined by “and”; a condition that tells them apart may be missing. Identical values can stand only once. Like-named read-outs stand apart in the source and are kept apart here.

In one series the target is T1, KSP motor domain (Homo sapiens, UniProt P52732).
T1 construct: 100 nM KSP motor domain, 50 μg/ml microtubules
T1 sequence (P52732 18-359 limits assumed): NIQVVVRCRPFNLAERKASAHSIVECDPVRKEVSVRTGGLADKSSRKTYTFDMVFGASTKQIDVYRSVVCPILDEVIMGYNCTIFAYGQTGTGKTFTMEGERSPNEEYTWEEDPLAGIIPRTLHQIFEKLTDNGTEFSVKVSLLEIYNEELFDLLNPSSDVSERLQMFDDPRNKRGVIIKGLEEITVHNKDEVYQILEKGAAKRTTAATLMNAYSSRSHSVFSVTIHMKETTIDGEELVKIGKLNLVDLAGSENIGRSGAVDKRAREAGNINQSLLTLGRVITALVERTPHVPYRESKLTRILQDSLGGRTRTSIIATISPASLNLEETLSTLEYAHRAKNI
The series can be described thus: KSP ATPase assay (IC50 / Ki). Type of series: biochemical. The settings on record: for Ki: synthesized as single enantiomer. The protocol: One measure of inhibition is IC50, defined as the concentration of the composition at which the activity of KSP is decreased by fifty percent. Preferred compositions have IC50's of less than about 1 mM, with preferred embodiments having IC50's of less than about 100 μM, with more preferred embodiments having IC50's of less than about 10 μM, with particularly preferred embodiments having IC50's of less than about 1 μM, and especially preferred embodiments having IC50's of less than about 100 nM, and with the most preferred embodiments having IC50's of less than about 10 nM. Measurement of IC50 is done using an ATPase assay.
The Ki for a compound is determined from the IC50 based on three assumptions. First, only one compound molecule binds to the enzyme and there is no cooperativity. […] Third, the enzymatic rate of the enzyme-inhibitor complex is zero. The rate (i.e., compound concentration) data are fitted to the equation: […]
Where V is the observed rate, Vmax is the rate of the free enzyme, I0 is the inhibitor concentration, E0 is the enzyme concentration, and Kd is the dissociation constant of the enzyme-inhibitor complex.
Measurement of a composition's IC50 for KSP activity uses an ATPase assay. The following solutions are used: Solution 1 consists of 3 mM phosphoenolpyruvate potassium salt (Sigma P-7127), 2 mM ATP (Sigma A-3377), 1 mM IDTT (Sigma D-9779), 5 μM paclitaxel (Sigma T-7402), 10 ppm antifoam 289 (Sigma A-8436), 25 mM Pipes/KOH pH 6.8 (Sigma P6757), 2 mM MgC12 (VWR JT400301), and 1 mM EGTA (Sigma E3889). Solution 2 consists of 1 mM NADH (Sigma N8129), 0.2 mg/ml BSA (Sigma A7906), pyruvate kinase 7 U/ml, L-lactate dehydrogenase 10 U/ml (Sigma P0294), 100 nM KSP motor domain, 50 μg/ml microtubules, 1 mM DTT (Sigma D9779), 5 μM paclitaxel (Sigma T-7402), 10 ppm antifoam 289 (Sigma A-8436), 25 mM Pipes/KOH pH 6.8 (Sigma P6757), 2 mM MgC12 (VWR JT4003-01), and 1 mM EGTA (Sigma E3889). Serial dilutions (8-12 two-fold dilutions) of the composition are made in a 96-well microtiter plate (Corning Costar 3695) using Solution 1. Following serial dilution each well has 50 μl of Solution 1. The reaction is started by adding 50 μl of solution 2 to each well. This may be done with a multichannel pipettor either manually or with automated liquid handling devices. The microtiter plate is then transferred to a microplate absorbance reader and multiple absorbance readings at 340 nm are taken for each well in a kinetic mode. The observed rate of change, which is proportional to the ATPase rate, is then plotted as a function of the compound concentration. For a standard IC50 determination the data acquired is fit by the following four parameter equation using a nonlinear fitting program (e.g., Grafit 4): […]
Where y is the observed rate and x the compound concentration.

Series [1] concerns SKOV3 tumor xenograft. The series can be described thus: SKOV3 tumor xenograft in nude mice. Type of series: in vivo. The following applies: for Mice with Partial Tumor Shrinkage / Mortalities: 8 mice at start. The protocol: Female nude mice weighing approximately 20 g were implanted s.c. by trocar with fragments of human tumor carcinomas harvested from s.c. growing tumors in nude mice host. When the tumors were approximately 77 mg in size, the animals were pair matched into treatment and control groups. Each group contained 8 tumored mice, each of which was ear-tagged and followed individually throughout the experiment. Initial doses (10 mL/kg of a 66 mM Citrate buffer, pH 5.0/0.9% Saline/10% Tween 80 formulation of each test compound having a maximum concentration of 5 mg/mL) were given on Day 1 following pair matching, dosing at the levels and schedules indicated.
Mice were weighed twice weekly, and tumor measurements were taken by calipers twice weekly, starting on Day 1. These tumor measurements were converted to mg tumor weight by a well-known formula, W^2×L/2. The experiment was terminated when the control group tumor size reached an average of 1 gram. Upon termination, the mice were weighted, sacrificed and their tumors excised. Tumors were weighted and the mean treated tumor weight per group was calculated. In this model, the change in mean treated tumor weight/the change in mean control tumor weight×100% (ΔT/ΔC) was subtracted from 100% to give the tumor growth inhibition (TGI) for each group.

The next series relates to A549 cells. The settings on record: cited from earlier work.
For series [2], the system named is Skov-3 cells (human ovarian cancer). As to the kind of experiment: FACS analysis of cell cycle stage by DNA content. The format is cell-based. The settings on record: 24 hours; 10 nM paclitaxel, 400 nM quinazolinone 1, 200 nM quinazolinone 2. As to the method:
FACS analysis to determine cell cycle stage by measuring DNA content was performed as follows. Skov-3 cells (human ovarian cancer) were split 1:10 for plating in 10 cm dishes and grown to subconfluence with RPMI 1640 medium containing 5% fetal bovine serum (FBS). The cells were then treated with either 10 nM paclitaxel, 400 nM quinazolinone 1, 200 nM quinazolinone 2, or 0.25% DMSO (vehicle for compounds) for 24 hours. Cells were then rinsed off the plates with PBS containing 5 mM EDTA, pelleted, washed once in PBS containing 1% FCS, and then fixed overnight in 85% ethanol at 4° C. Before analysis, the cells were pelleted, washed once, and stained in a solution of 10 μg propidium iodide and 250 μg of ribonuclease (RNAse) A per milliliter at 37° C. for half an hour. Flow cytometry analysis was performed on a Becton-Dickinson FACScan, and data from 10,000 cells per sample was analyzed with Modfit software.

Series [3] concerns SKOV3 tumor xenograft. The series can be described thus: SKOV3 tumor xenograft in nude mice. Type of series: in vivo.
Where [4] appears, read: R enantiomer, read-out: Ki (μM) R enantiomer.
[5] abbreviates: S enantiomer, read-out: Ki (μM) S enantiomer.
The mark [6] stands for this setting: enantiomer 1 from chiral chromatography, read-out: IC50 (μM) Enantiomer 1.
The mark [7] stands for this setting: enantiomer 2 from chiral chromatography, read-out: IC50 (μM) Enantiomer 2.
[8] abbreviates: racemate, read-out: IC50 (μM) Racemate.
The mark [9] stands for this setting: 20 mg/kg daily × 5, i.p., Tables A-D.
The mark [10] stands for this setting: 50 mg/kg every 3 days × 4, i.v.
[11] abbreviates: 80 mg/kg every 3 days × 4, i.v.

As a reminder, the Ki is the equilibrium dissociation constant of an inhibitor or competing ligand from its target. In the case of `CC(c1nc2ccccc2c(=O)n1Cc1ccccc1)N(CCN)C(=O)c1ccc(Br)cc1` (centres unmarked), the inhibition constant (Ki) was < 0.1 µM at KSP motor domain (setting [4]) and 2 µM on KSP motor domain (setting [5]).

Take `CCC(c1nc2cc(Cl)ccc2c(=O)n1Cc1ccccc1)N(CCN)Cc1ccc(C)cc1` (centres unmarked) [Compound 4]: in the series with SKOV3 tumor xenograft [1] (4 mg/kg weekly × 3, i.v.), the “Final Tumor Weight (Mean ± SEM)” value was found to be 726.9 ± 147.2 mg, the “Maximum Weight Loss” value is listed as 0.02%, the “Tumor Growth Inhibition” value came to 40.1% and the “Mice with Partial Tumor Shrinkage” value was found to be 0. Further, the Mortalities with SKOV3 tumor xenograft [1] (4 mg/kg weekly × 3, i.v.) is given as 1.

In the case of `CC(c1nc2ccccc2c(=O)n1Cc1ccccc1)N(CCN(C)C)C(=O)c1ccc(Br)cc1` (single isomer, unassigned), the IC50 is > 40 µM on KSP motor domain (setting [6]), 1.3 µM on KSP motor domain (setting [7]) and 2.6 µM on KSP motor domain (setting [8]).

Take `CCC(c1nc2cc(Cl)ccc2c(=O)n1Cc1ccccc1)N(CCN)C(=O)c1ccc(Br)cc1` (centres unmarked): the Ki was < 0.05 µM on KSP motor domain (setting [4]) and > 0.5 µM on KSP motor domain (setting [5]).

In general, GI50 refers to the concentration that inhibits growth by half. `NC(=O)NO` [hydroxyurea]: the GI50 with A549 cells is 500000 nM.

`CCC(c1nc2cc(Cl)ccc2c(=O)n1Cc1ccccc1)N(CCCN)C(=O)c1ccc(C)cc1` (racemic): the IC50 at KSP motor domain (R isomer, read-out: R Isomer IC50) is < 0.05 µM; at KSP motor domain (S isomer, read-out: S Isomer IC50) it was > 0.5 µM; at KSP motor domain (racemic, read-out: Racemic I C50), < 0.05 µM.

`CC(=O)O[C@H]1C(=O)[C@@]2(C)[C@H]([C@H](OC(=O)c3ccccc3)[C@]3(O)C[C@H](OC(=O)[C@H](O)[C@@H](NC(=O)c4ccccc4)c4ccccc4)C(C)=C1C3(C)C)[C@]1(OC(C)=O)CO[C@@H]1C[C@@H]2O` [Taxol, paclitaxel, reference compound]: the GI50 in the series on A549 cells was 4 nM. For the same molecule, in the series on SKOV3 tumor xenograft [1] (setting [9]), the “Maximum Weight Loss” value is 16.5% and 7.49% and 12.26% and 8.77%; the “Mean % Tumor Shrinkage” value is 27.9% and 43.5% and 44.4%. In addition, the “Tumor Growth Inhibition” value in the series on SKOV3 tumor xenograft [1] (20 mg/kg daily × 5, i.p., separate experiments Tables A-D) was 91.7% and 99.7% and 87.1% and 73.0%. Besides, the “shift of cell cycle stage (DNA content)” value in series [2] is given as “caused a shift in the population of cells from a G0/G1 cell cycle stage (2n DNA content) to a G2/M cell cycle stage (4n DNA content)”.

For `CCC(c1nc2ccccc2c(=O)n1Cc1ccccc1)N(CCN(C)C)C(=O)c1cccc2ccccc12` (single isomer, unassigned), the IC50 was > 40 µM on KSP motor domain (setting [6]), 6.6 µM on KSP motor domain (setting [7]) and 12.7 µM on KSP motor domain (setting [8]).

`CCC(c1nc2ccccc2c(=O)n1Cc1ccccc1)N(CCN(C)C)C(=O)c1ccc(Br)cc1` (single isomer, unassigned): the IC50 stood at 0.28 µM on KSP motor domain (setting [6]), 0.03 µM at KSP motor domain (setting [7]) and 0.06 µM at KSP motor domain (setting [8]).

For `CCC(c1nc2cc(F)ccc2c(=O)n1Cc1ccccc1)N(CCCN)C(=O)c1ccc(C)cc1` (centres unmarked) [Compound 2], in the series on SKOV3 tumor xenograft [1] (setting [10]), the “Final Tumor Weight (Mean ± SEM)” value amounted to 340.8 ± 93.0 mg, the “Maximum Weight Loss” value is “None”, the “Tumor Growth Inhibition” value is listed as 81.5% and the “Mice with Partial Tumor Shrinkage” value turned out to be 0. In the series on SKOV3 tumor xenograft [1] (setting [10]), this molecule showed a Mortalities of 0.

Take `CCC(c1nc2cc(Cl)ccc2c(=O)n1Cc1ccccc1)N(CC1CNC1)C(=O)c1ccc(C)cc1` (centres unmarked) [Compound 3]: in the series with SKOV3 tumor xenograft [1] (60 mg/kg daily × 5, i.v.), the “Maximum Weight Loss” value was 2.76%, the “Tumor Growth Inhibition” value was found to be 48.3%, the “Mice with Partial Tumor Shrinkage” value was determined as 0 and the Mortalities turned out to be 1. Besides, the “Final Tumor Weight (Mean ± SEM)” value with SKOV3 tumor xenograft [3] (60 mg/kg daily × 5, i.v.) worked out at 806.1 ± 163.8 mg.

Consider `COc1cccc2c1C(=O)c1c(O)c3c(c(O)c1C2=O)C[C@@](O)(C(=O)CO)C[C@@H]3O[C@H]1C[C@H](N)[C@H](O)[C@H](C)O1` [doxorubicin], for which the GI50 in the series with A549 cells is 63 nM.

With `CCC(c1nc2cc(Cl)ccc2c(=O)n1Cc1ccccc1)N(CCCN(C)C)C(=O)c1ccc(Br)cc1` (centres unmarked) [Compound 5], in the series on SKOV3 tumor xenograft [1] (25 mg/kg daily × 5, i.v.), the “Final Tumor Weight (Mean ± SEM)” value came out at 405.6 ± 124.8 mg, the “Maximum Weight Loss” value is “None”, the “Mean % Tumor Shrinkage” value stood at 56.3% and the “Tumor Growth Inhibition” value was 71.0%. Moreover, in the series on SKOV3 tumor xenograft [1] (25 mg/kg daily × 5, i.v.), the “Mice with Partial Tumor Shrinkage” value amounted to 1 and the Mortalities is given as 0.

As for `O=c1[nH]cc(F)c(=O)[nH]1` [5-fluorouracil], in the series on A549 cells, the GI50 was 1000 nM.

As to `CCC(c1nc2cc(Cl)ccc2c(=O)n1Cc1ccccc1)N(CCCN)Cc1ccc(Br)cc1` (centres unmarked) [Compound 1], in the series on SKOV3 tumor xenograft [1] (setting [11]), the “Maximum Weight Loss” value was “None”, the “Tumor Growth Inhibition” value was 41.5%, the “Mice with Partial Tumor Shrinkage” value turned out to be 0 and the Mortalities was 1. Besides, the “Final Tumor Weight (Mean ± SEM)” value in the series on SKOV3 tumor xenograft [3] (setting [11]) is given as 554.3 ± 76.8 mg.
